# Assay results: patent US20240033211A1, “EXTRACT OF AT LEAST ONE PLANT OF THE CROCUS SATIVUS SPECIES COMPRISING A HIGH CONTENT OF CROCINS AND A LOW CONTENT OF SAFRANAL, AND COSMETIC USE THEREOF AS ANTIOXIDANT” (L'OREAL, priority 2020, published 2024)
# Test: Study of squalene peroxidation (UVA, hematoporphyrin photosensitizer, singlet oxygen)
# Assay type: biochemical
# Source text: Protocol: The principle of the test is to determine, via the assaying of squalene (Sq) and its photo-oxidation product, the efficacy of an active agent against this form of photo-peroxidation.
# The test makes use of squalene in the presence of a photosensitizer, hematoporphyrin. Under the action of UVA rays, singlet oxygen (^1O2) is generated. This highly reactive form of oxygen degrades the squalene by oxidation of the double bonds to form squalene hydroperoxides (Sq-OOH).
# In the context of the test, the exposure of squalene combined with hematoporphyrin is carried out in the presence of various concentrations of extract obtained according to Example 2 (according to the invention) and according to Example 3 (outside the invention). The reaction medium is ethanol.
# Equipment and Reagents: • Squalene [Sigma S-3626] • Hematoporphyrine Free Base (approx. 70%) [Sigma—ref H-7253] • HPLC or UPLC system in reverse phase mode, detection in UV mode (205 nm)
# Procedure: • ethanol solution containing 500 μg/ml of Sq and 2 μg/ml hematoporphyrin+extract to be tested • expose to UVA rays for the dose of 5 J/cm^2 • measure the amount of Sq and SqOOH before and after exposure • plot % inhibition as a function of the amount of extract tested.
# *IC25: concentration of raw material needed to inhibit squalene peroxidation by 25%. […]
substance,measurement,setting,value
vitamin E,IC50 (squalene peroxidation),"comparison value for vitamin E, printed as % (=250 ppm)",~0.025%
same,IC50 (concentration of raw material needed to inhibit squalene peroxidation by 50%),"solution in ethanol, UVA 5 J/cm^2",~250 ppm
